According to the CheMixHub drug solubility set:

Assay: xn = mol fraction of the nth substance listed, in the solute-free solvent

CCC(C)n1ncn(-c2ccc(N3CCN(c4ccc(OCC5COC(Cn6cncn6)(c6ccc(Cl)cc6Cl)O5)cc4)CC3)cc2)c1=O (stereo unspecified) + ClCCl + CCO
solubility (g/100 g solution)
Conditions | x2 = 0.05744 | x2 = 0.1206 | x2 = 0.1903 | x2 = 0.2677 | x2 = 0.3542 | x2 = 0.4513 | x2 = 0.5613 | x2 = 0.6869 | x2 = 0.8315
288.15 K | 0.0488 | 0.124 | 0.37 | 1.04 | 2.95 | 7.26 | 15.2 | 21.3 | 25.9
293.15 K | 0.0616 | 0.163 | 0.436 | 1.35 | 3.51 | 8.44 | 16.3 | 22.6 | 27
298.15 K | 0.0776 | 0.215 | 0.511 | 1.72 | 4.09 | 9.83 | 17.6 | 24 | 28.2
303.15 K | 0.0979 | 0.279 | 0.598 | 2.16 | 4.81 | 11.3 | 18.8 | 25.4 | 29.3
308.15 K | 0.122 | 0.362 | 0.694 | 2.7 | 5.58 | 13 | 20.1 | 26.7 | 30.5

CCC(C)n1ncn(-c2ccc(N3CCN(c4ccc(OCC5COC(Cn6cncn6)(c6ccc(Cl)cc6Cl)O5)cc4)CC3)cc2)c1=O (stereo unspecified) + ClCCl + CO
solubility (g/100 g solution)
Conditions | x2 = 0.04066 | x2 = 0.08707 | x2 = 0.1405 | x2 = 0.2028 | x2 = 0.2761 | x2 = 0.364 | x2 = 0.4709 | x2 = 0.6041 | x2 = 0.7744
288.15 K | 0.122 | 0.244 | 0.561 | 1.46 | 4.71 | 10.6 | 19.3 | 28 | 31.4
293.15 K | 0.147 | 0.294 | 0.696 | 1.84 | 5.79 | 12.5 | 21.2 | 29.4 | 32.6
298.15 K | 0.177 | 0.355 | 0.855 | 2.28 | 6.97 | 14.5 | 23.2 | 30.8 | 33.9
303.15 K | 0.212 | 0.426 | 1.04 | 2.83 | 8.37 | 16.8 | 25.3 | 32.2 | 35
308.15 K | 0.253 | 0.508 | 1.26 | 3.5 | 9.95 | 19.3 | 27.6 | 33.6 | 36.2

CC(N)C(=O)O (stereo unspecified) + O + CC(C)=O
solubility (g/100 g solution)
Conditions | x2 = 0.1 | x2 = 0.2 | x2 = 0.3 | x2 = 0.4 | x2 = 0.5 | x2 = 0.6 | x2 = 0.7 | x2 = 0.8 | x2 = 0.9
283.15 K | 0.0237 | 0.0301 | 0.047 | 0.0557 | 0.0712 | 0.135 | 0.382 | 1.03 | 3.44
293.15 K | 0.0407 | 0.0463 | 0.0511 | 0.0648 | 0.0791 | 0.17 | 0.457 | 1.34 | 4.17
303.15 K | 0.047 | 0.053 | 0.0603 | 0.0794 | 0.0969 | 0.22 | 0.611 | 1.73 | 5.02
313.15 K | 0.0547 | 0.0607 | 0.0696 | 0.0949 | 0.128 | 0.309 | 0.794 | 2.22 | 6.57
323.15 K | 0.0629 | 0.0786 | 0.0878 | 0.138 | 0.193 | 0.484 | 1.14 | 3.18 | 8.13

Cc1ncc(C[n+]2csc(CCO)c2C)c(N)n1.O=[N+]([O-])[O-] + O + CC(C)=O
solubility (g/100 g solution)
Conditions | 278.15 K | 283.15 K | 288.15 K | 293.15 K | 298.15 K | 303.15 K | 308.15 K | 313.15 K
x2 = 0.3 | 0.0632 | 0.0724 | 0.0831 | 0.0951 | 0.118 | 0.138 | 0.161 | 0.193
x2 = 0.4 | 0.169 | 0.198 | 0.227 | 0.252 | 0.298 | 0.344 | 0.393 | 0.437
x2 = 0.5 | 0.394 | 0.441 | 0.498 | 0.556 | 0.639 | 0.733 | 0.842 | 0.951
x2 = 0.6 | 0.648 | 0.746 | 0.87 | 0.996 | 1.16 | 1.37 | 1.64 | 2
x2 = 0.7 | 1.08 | 1.24 | 1.45 | 1.69 | 1.98 | 2.3 | 2.69 | 3.23
x2 = 0.8 | 1.55 | 1.8 | 2.14 | 2.53 | 2.97 | 3.56 | 4.14 | 4.86
x2 = 0.9 | 1.85 | 2.17 | 2.54 | 3.11 | 3.62 | 4.28 | 5 | 5.96

CC(N)C(=O)O (stereo unspecified) + O + CC(C)O
solubility (g/100 g solution)
Conditions | x2 = 0.1 | x2 = 0.2 | x2 = 0.3 | x2 = 0.4 | x2 = 0.5 | x2 = 0.6 | x2 = 0.7 | x2 = 0.8 | x2 = 0.9
283.15 K | 0.0186 | 0.0381 | 0.0478 | 0.104 | 0.185 | 0.376 | 0.772 | 1.58 | 3.5
293.15 K | 0.0303 | 0.046 | 0.0604 | 0.124 | 0.223 | 0.459 | 1.01 | 2.08 | 4.48
303.15 K | 0.0379 | 0.0557 | 0.0726 | 0.143 | 0.267 | 0.552 | 1.25 | 2.62 | 5.51
313.15 K | 0.0427 | 0.0643 | 0.0784 | 0.158 | 0.316 | 0.704 | 1.55 | 3.3 | 6.91
323.15 K | 0.0448 | 0.0801 | 0.113 | 0.167 | 0.372 | 0.842 | 1.85 | 4.04 | 8.23
